System: angiogenesis due to bFGF (rat cornea)
Test: Angiogenesis inhibitory action by the rat cornea micropocket method
Format: in vivo, male Sprague-Dawley rats
Settings: sustained release pellet, 20 μg sample, next to bFGF pellet (250 ng) in cornea; observed after 10 days
Text: Angiogenesis inhibitory action by the rat cornea micropocket method
Essentially the same method of Gimbrone et al. [J. National Cancer Institute 52:413-419 (1974)] was follows.
Specifically, adult male Sprague-Dawley rats (11 to 16 week old) were anesthetized with nembtal and locally anesthetized by instillation of xylocaine eyedrops onto the eyeball. The cornea was incised to a length of about 2 mm at about 2 mm inside from the corneal circumference by means of an injection needle, and a basic fibroblast growth factor (bFGF, bovine brain-derived, purified product, R & D Inc.) and a sustained release pellet containing the test sample were inserted side by side into the incision so that the bFGF pellet was located on the central side in the cornea. In the control group, the bFGF pellet and a sample-free pellet were inserted into the cornea. After 10 days, the cornea was observed under a stereoscopic microscope.
The sustained release pellets were prepared in the following manner. An ethylene-vinyl acetate copolymer (Takeda Chemical Industries, Ltd.) was dissolved in dichloromethane to a concentration of 8%. A 3 μl portion of the solution was air-dried on a glass dish, an aqueous solution of bFGF (250 ng) was then placed thereon and air-dried and, finally 3 μl of the above-mentioned ethylene-vinyl acetate copolymer solution was placed further thereon and air-dried to give a sandwich sheet. This sandwich sheet was made round into a bFGF pellet. The test sample pellets were prepared by dissolving each sample in ethanol to a concentration of 20 μg/2 μl, mixing the solution with 6 μl of an ethylene-vinyl acetate copolymer solution, air-drying the mixed solution on a glass dish and making the thus-obtained sheet round.
In the above Table 1, the number of rats subjected to the test was shown by denominator, and the number of rats whose […] due to bFGF was retarded or weakened by administration of the test sample was shown by numerator. In the judgment, +means an inhibition rate of 70% or more, and ±means that of less than 70% but exceeding 40%.

| Compound | Inhibitory Rate (rats whose angiogenesis due to bFGF was retarded or weakened / rats subjected to the test) | Judgment (Angiogenesis Inhibitory Activity) |
| --- | --- | --- |
| CO[C@@H]1[C@H](OC(=O)NC(=O)CCl)CC[C@](O)(CCl)[C@H]1[C@@]1(C)O[C@@H]1CC=C(C)C [Example 1c, 4-O-(Chloroacetylcarbamoyl)-2-(1,2-epoxy-1,5-dimethyl-4-hexenyl)-3-methoxy-1-chloromethyl-1,4-cyclohexanediol] | 5/5 | + (an inhibition rate of 70% or more) |
| CO[C@@H]1[C@H](OC(=O)NC(=O)C(C)CCl)CC[C@](O)(CCl)[C@H]1[C@@]1(C)O[C@@H]1CC=C(C)C (stereo partly drawn) [Example 4, 4-O-(3-Chloro-2-methyl-propionylcarbamoyl)-2-(1,2-epoxy-1,5-dimethyl-4-hexenyl)-3-methoxy-1-chloromethyl-1,4-cyclohexanediol] | 3/5 | ± (that of less than 70% but exceeding 40%) |
| CO[C@@H]1[C@H](O)CC[C@](O)(CSC)[C@H]1[C@@]1(C)O[C@@H]1CC=C(C)C [Example 10, 2-(1,2-Epoxy-1,5-dimethyl-4-hexenyl)-3-methoxy-1-methylthiomethyl-1,4-cyclohexanediol] | 4/7 | ± (that of less than 70% but exceeding 40%) |
| CO[C@@H]1[C@H](O)CC[C@](O)(C[N+]2([O-])CCCC2)[C@H]1[C@@]1(C)O[C@@H]1CC=C(C)C [Example 48, 2-(1,2-Epoxy-1,5-dimethyl-4-hexenyl)-3-methoxy-1-(pyrrolidin-1-yl)methyl-1,4-cyclohexanediol N-oxide] | 4/7 | ± (that of less than 70% but exceeding 40%) |
| CO[C@@H]1[C@H](OC(N)=O)CC[C@](O)(C[S+](C)C)[C@H]1[C@@]1(C)O[C@@H]1CC=C(C)C [Example 70, 4-Carbamoyloxy-2-(1,2-epoxy-1,5-dimethyl-4-hexenyl)-3-methoxy-1-dimethylsulfoniomethyl-cyclohexanol iodide] | 5/6 | + (an inhibition rate of 70% or more) |
| CO[C@@H]1[C@H](OC(=O)NC(=O)CSc2nc3ccccc3s2)CC[C@](O)(CCl)[C@H]1[C@@]1(C)O[C@@H]1CC=C(C)C [Example 91] | 6/6 | + (an inhibition rate of 70% or more) |

System: M5076 cells
Test: Antitumor test in mice inoculated subcutaneously with M5076 cells (tumor size, T/C)
Format: in vivo, C57BL/6 mice
Settings: 20 mg/kg, subcutaneous, 10 times in total; tumor size after 13 days
Protocol: C57BL/6 mice (a group consisting of 6 mice) were inoculated subcutaneously at the dorsolateral area with 2×10^6 M5076 cells, and then a test compound dissolved in a 5% gum arabic physiological saline solution was subcutaneously administered 10 times in total, i.e. 1st, 2nd, 4th, 5th, 6th, 7th, 8th, 9th, 11th and 12th day after the inoculation. After 13 days, the major axis (a) and the minor axis (b) of the tumor tissue were measured to determine the tumor size by the calculation formula of a×b^2 ×1/2. The ratio of the tumor size thus calculated to the tumor size of animals in the control group was shown by T/C (%).

| Compound | T/C (%) (ratio of tumor size to control group) |
| --- | --- |
| 4-(N'-chloroacetylureido)-2-(1,2-epoxy-1,5-dimethyl-4-hexenyl)-1-(1,3-dihydrobenzo[c]thiophen-2-ylio)methyl-3-methoxycyclohexanol chloride [Example 100] | 22 |
| CO[C@@H]1[C@H](OC(=O)NC(=O)CCl)CC[C@](O)(C[S+](C)Cc2cccc(Br)c2)[C@H]1[C@@]1(C)O[C@@H]1CC=C(C)C (single isomer, unassigned) [Example 65A, 1-(3-bromobenzyl)methylsulfoniomethyl-4-(N-chloroacetylcarbamoyloxy)-2-(1,2-epoxy-1,5-dimethyl-4-hexenyl)-3-methoxycyclohexanol bromide] | 9 |
| CO[C@@H]1[C@H](OC(=O)NC(=O)CCl)CC[C@](O)(C[S+](C)Cc2cccc(Br)c2)[C@H]1[C@@]1(C)O[C@@H]1CC=C(C)C (single isomer, unassigned) [Example 65B, 1-(3-bromobenzyl)methylsulfoniomethyl-4-(N-chloroacetylcarbamoyloxy)-2-(1,2-epoxy-1,5-dimethyl-4-hexenyl)-3-methoxycyclohexanol bromide] | 37 |

Same assay, conditions: Mus musculus, M5076, sc, 312 h, 20 mg/kg, subcutaneous, 10 times in total; tumor size after 13 days; read-out: T/C (%) (ratio of tumor size to control group)

| Compound | response vs control in vivo at 20 mg/kg [%] |
| --- | --- |
| CO[C@@H]1[C@H](OC(=O)NC(=O)CCl)CC[C@](O)(C[S+](C)Cc2ccc(Br)cc2)[C@H]1[C@@]1(C)O[C@@H]1CC=C(C)C (stereo partly drawn) [Example 60, 1-(4-Bromobenzyl)methylsulfoniomethyl-4-(N-chloroacetylcarbamoyloxy)-2-(1,2-epoxy-1,5-dimethyl-4-hexenyl)-3-methoxycyclohexanol bromide] | 21 |
| CO[C@@H]1[C@H](OC(=O)NC(=O)CCl)CC[C@](O)(C[S+](C)Cc2ccc(Cl)cc2)[C@H]1[C@@]1(C)O[C@@H]1CC=C(C)C (stereo partly drawn) [Example 61, 4-(N-Chloroacetylcarbamoyloxy)-1-(4-chlorobenzyl)methylsulfoniomethyl-2-(1,2-epoxy-1,5-dimethyl-4-hexenyl)-3-methoxycyclohexanol bromide] | 27 |
| CO[C@@H]1[C@H](OC(=O)NC(=O)CCl)CC[C@](O)(C[S+](C)Cc2ccc(F)cc2)[C@H]1[C@@]1(C)O[C@@H]1CC=C(C)C (stereo partly drawn) [Example 62, 4-(N-Chloroacetylcarbamoyloxy)-2-(1,2-epoxy-1,5-dimethyl-4-hexenyl)-1-(4-fluorobenzyl)methylsulfoniomethyl-3-methoxycyclohexanol bromide] | 29 |
| CO[C@@H]1[C@H](OC(=O)NC(=O)CCl)CC[C@](O)(C[S+](C)Cc2cccc(Br)c2)[C@H]1[C@@]1(C)O[C@@H]1CC=C(C)C (stereo partly drawn) [Example 64, 1-(3-Bromobenzyl)methylsulfoniomethyl-4-(N-chloroacetylcarbamoyloxy)-2-(1,2-epoxy-1,5-dimethyl-4-hexenyl)-3-methoxycyclohexanol bromide] | 24 |
| CO[C@@H]1[C@H](OC(=O)NC(=O)CCl)CC[C@](O)(C[S+](C)Cc2ccccc2)[C@H]1[C@@]1(C)O[C@@H]1CC=C(C)C (stereo partly drawn) [Example 76, 1-Benzylmethylsulfoniomethyl-4-chloroacetylcarbamoyloxy-2-(1,2-epoxy-1,5-dimethyl-4-hexenyl)-3-methoxycyclohexanol hydrogen L-tartrate] | 29 |
| CO[C@@H]1[C@H](OC(=O)NC(=O)CCl)CC[C@](O)(C[S+]2Cc3ccccc3C2)[C@H]1[C@@]1(C)O[C@@H]1CC=C(C)C [Example 82, 4-(N-Chloroacetylcarbamoyloxy)-2-(1,2-epoxy-1,5-dimethyl-4-hexenyl)-1-(1,3-dihydrobenzo[c]thiophen-2-ylio)methyl-3-methoxycyclohexanol chloride] | 9 |
| CO[C@@H]1[C@H](OC(=O)NC(=O)CCl)CC[C@](O)(C[S+]2CC3CC=CCC3C2)[C@H]1[C@@]1(C)O[C@@H]1CC=C(C)C (stereo partly drawn) [Example 104, 4-(N-chloroacetylcarbamoyloxy)-2-(1,2-epoxy-1,5-dimethyl-4-hexenyl)-1-(1,3,3a,4,7,7ahexahydrobenzo[c]thiophen-2-ylio)methyl-3-methoxycyclohexanol chloride] | 16 |

Same assay, conditions: Mus musculus, M5076, sc, 312 h, 30 mg/kg, subcutaneous, 10 times in total; tumor size after 13 days; read-out: T/C (%) (ratio of tumor size to control group)

| Compound | response vs control in vivo at 30 mg/kg [%] |
| --- | --- |
| CO[C@@H]1[C@H](OC(=O)NC(=O)CCl)CC[C@](O)(CCl)[C@H]1[C@@]1(C)O[C@@H]1CC=C(C)C [Example 1c, 4-O-(Chloroacetylcarbamoyl)-2-(1,2-epoxy-1,5-dimethyl-4-hexenyl)-3-methoxy-1-chloromethyl-1,4-cyclohexanediol] | 20 |
| C=CC(=O)NC(=O)O[C@@H]1CC[C@](O)(CCl)[C@@H]([C@@]2(C)O[C@@H]2CC=C(C)C)[C@@H]1OC [Example 2, 4-O-(Acryloylcarbamoyl)-2-(1,2-epoxy-1,5-dimethyl-4-hexenyl)-3-methoxy-1-chloromethyl-1,4-cyclohexanediol] | 20 |
| CO[C@@H]1[C@H](OC(=O)NC(=O)CCl)CC[C@](O)(C[S+](C)C)[C@H]1[C@@]1(C)O[C@@H]1CC=C(C)C [Example 13, 4-O-(Chloroacetylcarbamoyl)-2-(1,2-epoxy-1,5-dimethyl-4-hexenyl)-3-methoxy-1-dimethylsulfoniomethyl-1,4-cyclohexanediol iodide] | 36 |
| CO[C@@H]1[C@H](OC(=O)NC(=O)CCl)CC[C@](O)(C[S+](C)Cc2ccccc2)[C@H]1[C@@]1(C)O[C@@H]1CC=C(C)C (stereo partly drawn) [Example 16, 4-O-(N-chloroacetylcarbamoyl)-2-(1,2-epoxy-1,5-dimethyl-4-hexenyl)-3-methoxy-1-benzylmethylsulfoniomethyl-1,4-cyclohexanediol bromide] | 20 |
| C#CC[S+](C)C[C@@]1(O)CC[C@@H](OC(=O)NC(=O)CCl)[C@@H](OC)[C@@H]1[C@@]1(C)O[C@@H]1CC=C(C)C (stereo partly drawn) [Example 17, 4-O-(Chloroacetylcarbamoyl)-2-(1,2-epoxy-1,5-dimethyl-4-hexenyl)-3-methoxy-1-(2-propinyl)-methylsulfoniomethyl-1,4-cyclohexanediol bromide] | 21 |
